Experimental data from patent US6632817B2, “Fluoromethoximino compounds” (priority 1997, dated 2003).

Test system: Puccinia recondita
Assay: Puccinia test (wheat)/protective
Type: in vivo
Settings: Puccinia recondita, 240 h, protective, application rate 250 g/ha, evaluation 10 days after inoculation, read-out: Efficacy in %
Procedure: Puccinia Test (Wheat)/Protective
Solvent: 25 parts by weight of N,N-dimethylacetamide
Emulsifier: 0.6 part by weight of alkylaryl polyglycol ether
(§1) To produce a suitable preparation of active compound, 1 part by weight of active compound is mixed with the stated amounts of solvent and emulsifier, and the concentrate is diluted with water to the desired concentration.
To test for protective activity, young plants are sprayed with the preparation of active compound at the stated application rate. After the spray coating has dried on, the plants are sprayed with a conidia suspension of Puccinia recondita. The plants remain in an incubation cabin at 20° C. and 100% relative atmospheric humidity for 48 hours.
The plants are then placed in a greenhouse at a temperature of approximately 20° C. and a relative atmospheric humidity of 80% to promote the development of rust pustules.
Evaluation is carried out 10 days after the inoculation. 0% means an efficacy which corresponds to that of the control, whereas an efficacy of 100% means that no infection is observed.

SMILES	pest or weed control at 250 g/ha [%]
CNC(=O)/C(=N\OCF)c1ccccc1Oc1ncnc(Oc2ccccc2C)c1F [Example 11]	≥ 80
CNC(=O)/C(=N\OCF)c1ccccc1Oc1ncnc(Oc2cccc(C)c2C)c1F [Example 9]	≥ 80
CNC(=O)C(NOCF)c1ccccc1Oc1ncnc(Oc2ccccc2)c1F (stereo not shown) [drawing 88]	100
CNC(=O)C(NOCF)c1ccccc1Oc1ncnc(Oc2ccccc2[N+](=O)[O-])c1F (stereo not shown) [drawing 89]	100
CNC(=O)/C(=N\OCF)c1ccccc1Oc1ncnc(Oc2ccccc2Cl)c1F [drawing 96]	100
CNC(=O)C(NOCF)c1ccccc1Oc1ncnc(Oc2cccc(Cl)c2Cl)c1F (stereo not shown) [drawing 86]	100

Same assay, conditions: protective, application rate 250 g/ha, evaluation 10 days after inoculation

SMILES	Efficacy in % [%]
CNC(=O)/C(=N\OCF)c1ccccc1Oc1nc(-c2ccc(OC(F)(F)F)cc2)ns1 [drawing 95]	100
CNC(=O)C(=NOCF)c1ccccc1Oc1ncnc(Oc2ccccc2Cl)c1F [drawing 85]	100
COC(=O)C(=NOCF)c1ccccc1Oc1ncnc(Oc2ccccc2Cl)c1F [drawing 84]	80
CNC(=O)/C(=N\OCF)c1ccccc1Oc1nc(-c2cccc(C(F)(F)F)c2)ns1 [drawing 94]	100
CNC(=O)/C(=N\OCF)c1ccccc1Oc1ncnc(Oc2ccccc2OC(F)F)c1F [drawing 87]	100
CNC(=O)/C(=N\OCF)c1ccccc1Oc1ncnc(Oc2cccc(C)c2C)c1F [drawing 90]	100
CNC(=O)/C(=N\OCF)c1ccccc1Oc1nc(-c2ccc(OC(F)F)cc2)ns1 [drawing 97]	100
CNC(=O)/C(=N\OCF)c1ccccc1Oc1nc(-c2ccc(C(F)(F)F)cc2)ns1 [drawing 93]	100
CNC(=O)/C(=N\OCF)c1ccccc1Oc1ncnc(Oc2ccccc2C)c1F [drawing 92]	100
CNC(=O)/C(=N\OCF)c1ccccc1Oc1ncnc(Oc2ccccc2C#N)c1F [drawing 91]	100

Test system: Venturia inaequalis
Assay: Venturia test (apple)/protective
Type: in vivo
Settings: Venturia inaequalis, 288 h, protective, application rate 10 g/ha, evaluation 12 days after inoculation, read-out: Efficacy in %
Procedure: Venturia Test (Apple)/Protective
(§2) Solvent: 47 parts by weight of acetone
(§3) Emulsifier: 3 parts by weight of alkylaryl polyglycol ether
as §1
To test for protective activity, young plants are sprayed with the preparation of active compound at the stated application rate. After the spray coating has dried on, the plants are inoculated with an aqueous conidia suspension of the causative organism of apple scab Venturia inaequalis and then remain in an incubation cabin at approximately 20° C. and 100% relative atmospheric humidity for 1 day.
The plants are then placed in a greenhouse at approximately 21° C. and a relative atmospheric humidity of approximately 90%.
Evaluation is carried out 12 days after the inoculation. 0% means an efficacy which corresponds to that of the control, whereas an efficacy of 100% means that no infection is observed.

SMILES	pest or weed control at 10 g/ha [%]
CNC(=O)/C(=N\OCF)c1ccccc1Oc1ncnc(Oc2ccccc2C)c1F [Example 11]	≥ 99
CNC(=O)/C(=N\OCF)c1ccccc1Oc1ncnc(Oc2cccc(C)c2C)c1F [Example 9]	≥ 99
CNC(=O)C(NOCF)c1ccccc1Oc1ncnc(Oc2ccccc2)c1F (stereo not shown) [drawing 73]	96
CNC(=O)C(=NOCF)c1ccccc1Oc1nc(-c2ccccc2)ns1 [Example 3, 2-fluoromethoxyimino-N-methyl-2-[2-(3-phenyl-[1,2,4]thiadiazol-5-yloxy)-phenyl]-acetamide]	≥ 99
CNC(=O)/C(=N\OCF)c1ccccc1Oc1nc(-c2cccc(OC(F)F)c2)ns1 [drawing 82]	100
CNC(=O)/C(=N\OCF)c1ccccc1Oc1ncnc(Oc2ccccc2Cl)c1F [drawing 81]	100
CNC(=O)C(NOCF)c1ccccc1Oc1ncnc(Oc2cccc(Cl)c2Cl)c1F (stereo not shown) [drawing 71]	96
CNC(=O)/C(=N\OCF)c1ccccc1Oc1nc(-c2cccc(OC(F)(F)F)c2)ns1 [Example 23]	≥ 99

Same assay, conditions: Venturia inaequalis, 288 h, protective, application rate 19 g/ha, evaluation 12 days after inoculation, read-out: Efficacy in %

SMILES	pest or weed control at 19 g/ha [%]
CNC(=O)/C(=N\OCF)c1ccccc1Oc1nc(-c2ccc(C(F)(F)F)cc2)ns1 [drawing 78]	100

Same assay, conditions: protective, application rate 10 g/ha, evaluation 12 days after inoculation

SMILES	Efficacy in % [%]
CNC(=O)/C(=N\OCF)c1ccccc1Oc1nc(-c2ccc(OC(F)(F)F)cc2)ns1 [drawing 80]	100
CNC(=O)/C(=N\OCF)c1ccccc1Oc1ncnc(Oc2cccc(C)c2C)c1F [drawing 74]	100
COC(=O)C(=NOCF)c1ccccc1Oc1ncnc(Oc2ccccc2Cl)c1F [drawing 68]	100
CNC(=O)C(=NOCF)c1ccccc1Oc1ncnc(Oc2ccccc2Cl)c1F [drawing 69]	99
CNC(=O)/C(=N\OCF)c1ccccc1Oc1nc(-c2cccc(C(F)(F)F)c2)ns1 [drawing 79]	100
CNC(=O)/C(=N\OCF)c1ccccc1Oc1ncnc(Oc2ccccc2OC(F)F)c1F [drawing 72]	95
CNC(=O)/C(=N\OCF)c1ccccc1Oc1nc(-c2ccc(OC(F)F)cc2)ns1 [drawing 83]	99
CNC(=O)/C(=N\OCF)c1ccccc1Oc1ncnc(Oc2ccccc2C)c1F [drawing 75]	100
CNC(=O)/C(=N\OCF)c1ccccc1Oc1nc(-c2cccc(OC(F)(F)F)c2)ns1 [drawing 77]	100
CNC(=O)/C(=N\OCF)c1ccccc1Oc1ncnc(Oc2cccc(Cl)c2C)c1F [drawing 76]	98
CNC(=O)C(=NOCF)c1ccccc1Oc1nc(-c2ccccc2)ns1 [drawing 70]	100

Test system: not listed separately
Assay: logP determination by HPLC (EEC Directive 79/831 Annex V. A8)
Type: physicochemical
Settings: HPLC gradient method, acetonitrile/0.1% aqueous phosphoric acid
Procedure: The logP values are determined in accordance with EEC Directive 79/831 Annex V. A8 by HPLC (gradient method, acetonitrile/0.1% aqueous phosphoric acid).

chromatographic logP	SMILES
3	CNC(=O)/C(=N\OCF)c1ccccc1Oc1ncnc(Oc2ccccc2C)c1F [Example 11]
3.3	CNC(=O)/C(=N\OCF)c1ccccc1Oc1ncnc(Oc2cccc(C)c2C)c1F [Example 9]
1.1	CNC(=O)C(=NOCF)c1ccccc1O [Example (II-2), 2-fluoromethoxyimino-2-(2-hydroxyphenyl)-N-methylacetamide]
2.9	CNC(=O)C(=NOCF)c1ccccc1Oc1nc(-c2ccccc2)ns1 [Example 3, 2-fluoromethoxyimino-N-methyl-2-[2-(3-phenyl-[1,2,4]thiadiazol-5-yloxy)-phenyl]-acetamide]
2.8	COC(=O)C(=NOCF)c1ccccc1OC1CCCCO1 (stereo not shown) [Example (VI-1), methyl 2-fluoromethoxyimino-2-[2-(tetrahydropyran-2-yloxy)-phenyl]-acetate]
3.32	CNC(=O)/C(=N\OCF)c1ccccc1Oc1ncnc(Oc2cccc(C)c2Cl)c1F [Example 27]
3.8	CNC(=O)/C(=N\OCF)c1ccccc1Oc1nc(-c2cccc(OC(F)(F)F)c2)ns1 [Example 23]
1.6	COC(=O)C(=NOCF)c1ccccc1O [Example (II-1), methyl 2-fluoromethoxyimino-2-(2-hydroxyphenyl)-acetate]

Test system: Plasmopara viticola
Assay: Plasmopara test (grapevine)/protective
Type: in vivo
Settings: Plasmopara viticola, 144 h, protective, application rate 100 g/ha, evaluation 6 days after inoculation, read-out: Efficacy in %
Procedure: Plasmopara Test (Grapevine)/Protective
as §2, §3, §1
To test for protective activity, young plants are sprayed with the preparation of active compound at the stated application rate. After the spray coating has dried on, the plants are inoculated with an aqueous spore suspension of Plasmopara viticola and then remain in an incubation cabin at approximately 20° C. and 100% relative atmospheric humidity for 1 day. The plants are subsequently placed in a greenhouse at approximately 21° C. and approximately 90% relative atmospheric humidity for 5 days. The plants are then moistened and placed in an incubation cabin for 1 day.
Evaluation is carried out 6 days after the inoculation. 0% means an efficacy which corresponds to that of the control, whereas an efficacy of 100% means that no infection is observed.

SMILES	pest or weed control at 100 g/ha [%]
CNC(=O)/C(=N\OCF)c1ccccc1Oc1ncnc(Oc2ccccc2C)c1F [Example 11]	≥ 98
CNC(=O)/C(=N\OCF)c1ccccc1Oc1nc(-c2cccc(OC(F)F)c2)ns1 [drawing 65]	99
CNC(=O)/C(=N\OCF)c1ccccc1Oc1ncnc(Oc2cccc(C)c2C)c1F [Example 9]	≥ 98
CNC(=O)C(NOCF)c1ccccc1Oc1ncnc(Oc2ccccc2[N+](=O)[O-])c1F (stereo not shown) [drawing 58]	96
CNC(=O)C(=NOCF)c1ccccc1Oc1nc(-c2ccccc2)ns1 [Example 3, 2-fluoromethoxyimino-N-methyl-2-[2-(3-phenyl-[1,2,4]thiadiazol-5-yloxy)-phenyl]-acetamide]	≥ 98
CNC(=O)/C(=N\OCF)c1ccccc1Oc1ncnc(Oc2ccccc2Cl)c1F [drawing 64]	100
CNC(=O)/C(=N\OCF)c1ccccc1Oc1ncnc(Oc2cccc(C)c2Cl)c1F [Example 27]	≥ 98
CNC(=O)/C(=N\OCF)c1ccccc1Oc1nc(-c2cccc(OC(F)(F)F)c2)ns1 [Example 23]	≥ 98
CNC(=O)C(NOCF)c1ccccc1Oc1ncnc(Oc2ccccc2)c1F (stereo not shown) [drawing 57]	100

Same assay, conditions: protective, application rate 100 g/ha, evaluation 6 days after inoculation

SMILES	Efficacy in % [%]
CNC(=O)/C(=N\OCF)c1ccccc1Oc1nc(-c2ccc(C(F)(F)F)cc2)ns1 [drawing 61]	100
CNC(=O)/C(=N\OCF)c1ccccc1Oc1ncnc(Oc2cccc(C)c2C)c1F [drawing 59]	100
CNC(=O)/C(=N\OCF)c1ccccc1Oc1ncnc(Oc2ccccc2C#N)c1F [drawing 60]	96
CNC(=O)/C(=N\OCF)c1ccccc1Oc1nc(-c2cccc(OC(F)(F)F)c2)ns1 [drawing 54]	100
CNC(=O)/C(=N\OCF)c1ccccc1Oc1ncnc(Oc2cccc(C)c2Cl)c1F [drawing 67]	100
CNC(=O)/C(=N\OCF)c1ccccc1Oc1ncnc(Oc2ccccc2C)c1F [drawing 52]	100
CNC(=O)/C(=N\OCF)c1ccccc1Oc1ncnc(Oc2cccc(Cl)c2C)c1F [drawing 53]	100
CNC(=O)/C(=N\OCF)c1ccccc1Oc1nc(-c2cccc(C(F)(F)F)c2)ns1 [drawing 62]	100
CNC(=O)/C(=N\OCF)c1ccccc1Oc1nc(-c2ccc(OC(F)(F)F)cc2)ns1 [drawing 63]	100
COC(=O)C(=NOCF)c1ccccc1Oc1ncnc(Oc2ccccc2Cl)c1F [drawing 50]	98
CNC(=O)/C(=N\OCF)c1ccccc1Oc1ncnc(Oc2ccccc2OC(F)F)c1F [drawing 56]	96
CNC(=O)/C(=N\OCF)c1ccccc1Oc1nc(-c2ccc(OC(F)F)cc2)ns1 [drawing 66]	100
CNC(=O)C(=NOCF)c1ccccc1Oc1nc(-c2ccccc2)ns1 [drawing 55]	100
CNC(=O)C(=NOCF)c1ccccc1Oc1ncnc(Oc2ccccc2Cl)c1F [drawing 51]	100
